Measurements: ChEMBL document CHEMBL3507680, “University of Dundee, Gates Library screen for HepG2 cell viability”

Test: Human HepG2 cell viability assay in 384 well format
Assay type: toxicity, cell-based
Design: dose 125 nL, time 70.5 hour; cytotoxicity at 70.5 h: concentration not given beside the values
Conditions: HepG2 cells, read-out: Inhibition

Row | SMILES | cytotoxicity at 70.5 h [%]
1 | COc1ccc(OC)c(NC(=O)CSc2ccc3nncn3n2)c1 | -8.56
2 | NC(=O)c1cnc(NC2CCN(c3ccccn3)CC2)c(Cl)c1 | -6.48
3 | O=C(NCCn1cccc1)C(c1ccccc1)N1CCCC1 (configuration not stated) | 1.81
4 | O=C1NC2(CCCCC2)c2nnnn2-c2ccc(Br)cc21 | -5.57
5 | Cc1cc(C)n(CC(=O)NC2CCCCNC2=O)n1 (configuration not stated) | -6.78
6 | Cn1nc(COc2cccnc2)c2c1CCN(CC1CC1)C2 | -8.94
7 | CC(C)c1cc(NC(=O)CN2CCC(N3CCNC3=O)CC2)on1 | -3.58
8 | O=C(Nc1ccc(CC(=O)N2CCSCC2)cc1)NC1CCCC1 | -4.2
9 | CC(C)Oc1ccccc1C(=O)NC1CC(=O)N(CC(F)(F)F)C1 (configuration not stated) | -22.6
10 | CCOCCC(=O)N1C[C@H]2CC[C@@H]1CN(c1ncccn1)C2 | -5.84
11 | Cc1nc(C)n(CC2CN(Cc3nc4ccccc4n3C)CCO2)n1 (configuration not stated) | -13.3
12 | COc1cccc(CN(C)Cc2nc3c(cnn3C)c(=O)[nH]2)c1OC | -5.01
13 | O=C1N(Cc2ccncc2)CCC12CCCNC2 (configuration not stated) | -4.76
14 | Cc1ccc(C(=O)NCCNCC2CNc3ccnn3C2)cc1 (configuration not stated) | -0.325
15 | CN(C)C(=O)N1CCC2(CC1)CCN(c1ncccn1)C2 | 2.39
16 | Cc1cnn(CC2CN(c3nc4ccccc4o3)CCO2)c1 (configuration not stated) | 16.4
17 | COc1ccc(CCC(=O)N2CCN(c3nc(C)ns3)CC2)cc1 | -0.82
18 | CC(C)C(=O)N1C[C@H]2CCCN[C@H]2C1 | -5.18
19 | O=C(CCC(F)(F)F)N1CCCC(c2ncc[nH]2)C1 (configuration not stated) | 42.3
20 | CN(CCOCC1CC1)C(=O)Nc1ccc([S+](C)[O-])cc1 (configuration not stated) | -0.588
21 | CCN1CC(C(=O)NCc2ccnc(-n3ccnc3C)c2)CC1=O (configuration not stated) | -1.78
22 | CS(=O)(=O)CCCN1CCOC2(CCc3ccccc32)C1 (configuration not stated) | 0.769
23 | CC(CNC(=O)c1ccc(F)cc1Cl)N1CCCC1 (configuration not stated) | -7.32

Row | SMILES | cytotoxicity at 70.5 h [%]
24 | Cn1ccc(C(=O)N2C[C@H]3CCC[C@@]3(COCc3cccnc3)C2)n1 | -0.791
25 | Cc1csc(CN2CCC(C(=O)O)(n3ccc(-c4ccco4)n3)CC2)n1 | -7.21
26 | CNC(=O)[C@@H](c1ccccc1OC)N1CCC[C@H]1C(=O)NC(C)(C)C | -8.72
27 | Cc1cnn(C(C)C(=O)NCC2CCN(c3cnn(C)c(=O)c3)CC2)c1 (configuration not stated) | -5.13
28 | Cc1nn2cnnc2c(C)c1CCC(=O)Nc1nnc(C2CC2)s1 | -10.7
29 | CS(=O)(=O)NC1CCN(C(=O)c2ccc(Br)o2)C1 (configuration not stated) | -5.52
30 | CC(C)N(C)C(=O)c1ccc(Cl)c(NC(=O)COCC2CC2)c1 | -6.46
31 | COCCN1CC[C@@H]2OC(COCC(=O)N3CCCC3)CC[C@@H]21 (some centres not stated) | -3.03
32 | O=C(COCc1ccccc1)N1CCN(Cc2ccccc2F)C(=O)C1 | -9.08
33 | O=C(CC1CCCO1)Nc1ccn(Cc2cccc3cccnc23)n1 (configuration not stated) | -6.79
34 | CC(C)c1n[nH]c(C2CN(C(=O)c3cc(C4CC4)[nH]n3)CCO2)n1 (configuration not stated) | -10.5
35 | Cc1ccc(C(N)=O)c(N2C[C@H]3OC(=O)N(C4CCCC4)[C@H]3C2)n1 | -11.9
36 | COC(=O)C1CCCN1C(=O)c1ccc(Cl)cc1F (configuration not stated) | -2.57
37 | O=C(NCCOc1ccc(Cl)cn1)Nc1cccnc1 | -0.774
38 | COc1ccc(OC)c(CNCCc2cc(F)cc3c2OCOC3)c1 | 9.35
39 | CC(=O)N1CCC(c2cc(C(F)(F)F)nc3nccn23)CC1 | -8.29
40 | CN(C)CCN(Cc1cccc(F)c1)C(=O)c1ccc2nccn2c1 | -43.4
41 | CCn1cc(CNC(=O)CC(C)C)cn1 | 3.41
42 | CN(C)C(=O)N1CCC[C@]2(C(=O)N(C)C)CN(c3ccccn3)C[C@@H]2C1 | -10.5
43 | CN1C(=O)CCCC12CCCN(Cc1nccs1)C2 (configuration not stated) | 9.31
44 | CCc1nc2n(n1)CC(NCC(=O)Nc1oc(C)c(C)c1C#N)CC2 (configuration not stated) | 7.08
45 | CCCN(Cc1ccccn1)Cc1ccccc1OC | -6.2
46 | c1cn2c(n1)CN(Cc1ccsc1)CC(Cn1cncn1)C2 (configuration not stated) | -11.2

Row | SMILES | cytotoxicity at 70.5 h [%]
47 | Cc1nccnc1CCC1COCCN1C(=O)CCc1c(C)noc1C (configuration not stated) | 15.5
48 | O=C(NC1CC1)N1Cc2[nH]nc(COc3cccnc3)c2C1 | -6.87
49 | COC(=O)[C@H]1C[C@@H](O)CCN1S(=O)(=O)c1c(C)cc(OC)c(C)c1C | 27
50 | CC(C)C(=O)N1CCC12CCCN(C(=O)c1ccccc1)C2 (configuration not stated) | -2.99
51 | O=C(NCC(O)COc1ccccc1)Nc1nncs1 (configuration not stated) | 21.4
52 | O=C(c1ccoc1)N(Cc1cccnc1)C1CC1 | -21.3
53 | CNC(=O)C1CN(C(C)C)CCN1c1ncccn1 (configuration not stated) | 2.44
54 | c1cc(-c2cnc(NC3CC3)nc2[C@@H]2CCCO2)ccn1 | -8.62
55 | Cc1ccc(C(=O)N2CCC3(CC2)CC(NC(=O)C(C)C)CO3)cc1 (configuration not stated) | 5.27
56 | CC(C(=O)NCc1cn2cc(Br)ccc2n1)S(C)(=O)=O (configuration not stated) | -5.34
57 | CS(=O)(=O)N1CC[C@@H]2OC(COCC(=O)N3CCCC3)CC[C@@H]21 (some centres not stated) | -6.9
58 | CCc1nc2c(c(N3CCOCC3)n1)CCN(C(=O)N1CCCC1)CC2 | -6.31
59 | O=C(c1cscn1)N1CCc2ncc(CN3CCCC3)n2CC1 | -8.65
60 | O=C(O)CC[C@@H]1CN(c2ccncc2)CC[C@@H]1N1CCOCC1 | -3.32
61 | COc1cc(C(C#N)NC(=O)CC2=CCCCC2)cc(OC)c1OC (configuration not stated) | -5.49
62 | Cc1noc(C2CCC3(CCN(C(=O)c4c(C)noc4C)CC3)O2)n1 (configuration not stated) | -5.47
63 | COCCN1CCOCC2(CCCN(Cc3cccc(F)c3)C2)C1 (configuration not stated) | -5.38
64 | CC(C(=O)NCc1ccnc(Oc2ccc(F)cc2)c1)n1cncn1 (configuration not stated) | -9.56
65 | COCC1c2c(cnn2C)CCN1Cc1ccoc1 (configuration not stated) | -3.89
66 | Cc1[nH]ccc1C(=O)N1CCN(C)C2(CCC(=O)N(C)CC2)C1 (configuration not stated) | -11.2
67 | Cc1cccc2c1nc1n2[C@@H](CNC(=O)NC(C)C)COC1 | -0.416
68 | CCN(Cc1noc(CC(C)C)n1)Cc1ccccc1C(=O)O | -6.37
69 | CN(C)CCCC(=O)N1C[C@H]2CC[C@@H]1CN(Cc1ccccc1)C2 | -6.09

Row | SMILES | cytotoxicity at 70.5 h [%]
70 | O=S(=O)(c1cccs1)N1CC[C@H](O)[C@@H]1Cc1ccncc1 | -1.15
71 | CCC1CN(C(=O)c2ccccc2C#N)CCN1C(C)C (configuration not stated) | 14.9
72 | CC(C)N1CCC(CC(=O)NC[C@H]2CCc3ccccc3O2)CC1 | -11.9
73 | CN(C)c1nc(CNC(=O)N[C@H](CO)c2ccccc2)cs1 | 30.7
74 | Cc1ccnc(CC(C)N(C)c2cc(C3CCNCC3)nc(C)n2)c1 (configuration not stated) | -3
75 | CC1=N[C@@]2(CC[C@@H]3CN(Cc4ccccc4F)C[C@@H]32)C(=O)N1C | -20
76 | Nc1nccc(NCc2cc3n(n2)CCCN(C(=O)C2CCC2)C3)n1 | -6.62
77 | O=C1NCCCCC1Sc1nnc(C2CC2)n1C1CC1 (configuration not stated) | -5.95
78 | CNS(=O)(=O)CCCN1CCCCCC1c1ccc(C)o1 (configuration not stated) | -11
79 | COc1ccc(CCNC(=O)C2CCC(Cn3cnnn3)CC2)cc1 (configuration not stated) | -2.47
80 | CS(=O)(=O)N1CCO[C@@H]2CCN(Cc3ccncc3)CC[C@H]21 | -6.06
81 | CNC(=O)C1CCCN(C(=O)c2cncs2)C1 (configuration not stated) | -9.62
82 | CNC(=O)c1cccc(NC(=O)Cn2nc(-c3cccs3)oc2=O)c1 | 20.9
83 | COC(=O)C(NC(=O)c1ccco1)c1cc(F)ccc1F (configuration not stated) | -15.6
84 | CCCNC(=O)CNc1cc(C#N)ccc1OCC | 14.1
85 | Oc1ccc(-c2c(-c3ccccc3)ncn2C2CCNC2)cc1 (configuration not stated) | 6.28
86 | CC(=O)N1CC(=O)N(c2cnn(C)c2)CC12CCN(Cc1ccoc1)C2 (configuration not stated) | 1.31
87 | O=C1N(c2ccccc2)Cc2n[nH]c(=O)n21 | -0.951
88 | NC(=O)c1c(SCCN2CCCCC2)sc2c(O)cc(=O)[nH]c12 | -7.79
89 | Cc1cccc(COC[C@]23COC[C@H]2CN(C(=O)c2ccsc2)C3)n1 | 2.91
90 | Cn1cc(C2CCCN2C(=O)COCCOc2ccccc2)cn1 (configuration not stated) | -4.67
91 | CS(=O)(=O)N1C[C@H]2CN(CC3CC3)C(=O)[C@H]2C1 | -2.81
92 | CN(C)Cc1nc2c(o1)CN(C(=O)c1ccncc1F)C2 | -8.38

Row | SMILES | cytotoxicity at 70.5 h [%]
93 | O=C(CCN1CCSCC1c1ccccc1)N1CCOCC1 (configuration not stated) | 7.46
94 | CC1CCN(c2nc3ncc4c(c3c(=O)[nH]2)CC(C)(C)CC4=O)CC1 | -4.25
95 | O=C1CO[C@@H]2CN(S(=O)(=O)c3ccc(F)cc3)C[C@H]2N1 | 15.2
96 | Cc1nn(C)c(NC(=O)C2SCCc3ccccc32)c1C (configuration not stated) | 0.91
97 | COc1ccccc1-n1cc(CN2CCN(C)[C@@H]3CS(=O)(=O)C[C@@H]32)cn1 | -7.42
98 | COc1ccc(C)c(NC(=O)NCc2ncnn2C)c1 | 3.43
99 | O=C(NCc1cc[nH]n1)NC1CCCN(c2ncccn2)C1 (configuration not stated) | -6.39
100 | CCCn1c(NC(=O)CNC(=O)OCC)nc2ccccc21 | -8.2
101 | COc1ccc(OCc2nc(C(=O)N3CC[C@H](O)[C@@H](O)C3)co2)cc1 | -8.88
102 | CCn1cc(C2=CCN(CCCOc3ccccc3)CC2)cn1 | 0.137
103 | CN1CC(=O)N(c2ccccc2)CC12CCN(C(=O)c1ccnnc1)C2 (configuration not stated) | 24.2
104 | NCC(=O)N1CCC(c2cncc(Oc3cccnc3)n2)CC1 | 1.14
105 | CN1CCC2(COCc3cnc(N4CCOCC4)nc32)C1 (configuration not stated) | -16.8
106 | O=C(c1cccnc1)N1CCn2cc(CN3CCCC3)nc2C1 | -6.71
107 | CCC1c2ccsc2CCN1C(=O)NCc1cc[nH]n1 (configuration not stated) | -1.24
108 | Cc1nncn1CCNC(=O)C(C)(C)c1cccc(Cl)c1 | -8.68
109 | CC(SCC(=O)N(C)CC(=O)NC1CC1)c1ccccc1F (configuration not stated) | -5.51
110 | O=c1cc(CN2CCCC(CCc3c(F)cccc3F)C2)[nH]c(=O)[nH]1 (configuration not stated) | -8.15
111 | CN(CC(=O)Nc1ccc(Br)cn1)C(=O)Cc1ccc(O)cc1 | -1.46
112 | Cn1cc(CN2CC[C@@H]3[C@H]2CCC(=O)N3c2ccccc2)cn1 | -8.65
